Test results as given in patent US9994558B2, “Multicyclic compounds and methods of using same” (Karyopharm Therapeutics Inc., priority 2013, dated 2018).

What was measured:
Format in all cases: cell-based
Z138 cells = experiment: MTT cell proliferation assay, Z138 cells; conditions: Homo sapiens, Z-138, incubation approximately 64-72 hours
Protocol: (§1) The MTT cell proliferation assay was used to study the cytotoxic properties of the compounds. The assay was performed according to the method described by Roche Molecular Biochemicals, with minor modifications. The assay is based on the cleavage of the tetrazolium salt, MTT, in the presence of an electron-coupling reagent. The water-insoluble formazan salt produced must be solubilized in an additional step. Cells grown in a 96-well tissue culture plate were incubated with the MTT solution for approximately 4 hours. After this incubation period, a water-insoluble formazan dye formed. After solubilization, the formazan dye was quantitated using a scanning multi-well spectrophotometer (ELISA reader). […] The cells were seeded at 5,000-10,000 cells in each well of 96-well plate in 100 μL of fresh culture medium and were allowed to attach overnight. The stock solutions of the compounds were diluted in 100 μL cell culture medium to obtain eight concentrations of each test compound, ranging from 1 nM to 30 μM. […] All optical densities were measured at 490 nm using a Vmax Kinetic Microplate Reader (Molecular Devices). In most cases, the assay was performed in duplicate and the results were presented as a mean percent inhibition to the negative control±SE. The following formula was used to calculate the percent of inhibition. Inhibition (%)=(1−(ODo/OD))×100.
(§2) The compounds were tested against MS751, Z138 and 3T3 cells. The MS751 cell line is derived from a metastasis to lymph node of human cervix from a patient diagnosed with squameous cell carcinoma of the cervix. The […] cell line is a mature B-cell acute lymphoblastic leukemia cell line derived from a patient with chronic lymphocytic leukemia. 3T3 cells are standard fibroblast cells; they were originally isolated from Swiss mouse embryo tissue.

MS751 cells = experiment: MTT cell proliferation assay, MS751 cells; conditions: Homo sapiens, incubation approximately 64-72 hours
Protocol: as §1, §2

3T3 cells = experiment: MTT cell proliferation assay, 3T3 cells; conditions: Mus musculus, NIH3T3; 3T3 fibroblast cells; incubation approximately 64-72 hours
Protocol: as §1, §2

SMILES	IC50 (Z138 cells) [µM]	IC50 (MS751 cells) [µM]	IC50 (3T3 cells) [µM]
CN1CCN(C(=O)c2ccc(-c3ccc(OCCNC(=O)/C=C/c4ccc(N)nc4)c(Cl)c3)cc2)CC1 [Compound 313, (E)-3-(6-aminopyridin-3-yl)-N-(2-(3-chloro-4′-(4-methylpiperazine-1-carbonyl)biphenyl-4-yloxy)ethyl)acrylamide]	< 0.1	< 0.1	0.1 to 5
Cc1cc(-c2ccc(OCCNC(=O)/C=C/c3ccc(N)nc3)c(Cl)c2)ccc1C(=O)N1CCOCC1 [Compound 314, (E)-3-(6-aminopyridin-3-yl)-N-(2-(3-chloro-3′-methyl-4′-(morpholine-4-carbonyl)biphenyl-4-yloxy)ethyl)acrylamide]	< 0.1	< 0.1	0.1 to 5
C=C(C)c1ccc(-c2ccc(OCCNC(=O)/C=C/c3cccnc3)c(Cl)c2)s1 [Compound 315, (E)-N-(2-(2-chloro-4-(5-(prop-1-en-2-yl)thiophen-2-yl)phenoxy)ethyl)-3-(pyridin-3-yl)acrylamide]	0.1 to 5	5 to 10	5 to 10
Nc1ccc(/C=C/C(=O)NCCOc2ccc(-c3ccc(C(=O)N4CCOCC4)cc3)cc2Cl)cn1 [Compound 316, (E)-3-(6-aminopyridin-3-yl)-N-(2-(3-chloro-4′-(morpholine-4-carbonyl)biphenyl-4-yloxy)ethyl)acrylamide]	< 0.1	< 0.1	0.1 to 5
Nc1ccc(/C=C/C(=O)NCCOc2ccc(-c3cccc(C(=O)N4CCOCC4)c3)cc2Cl)cn1 [Compound 317, (E)-3-(6-aminopyridin-3-yl)-N-(2-(3-chloro-3′-(morpholine-4-carbonyl)biphenyl-4-yloxy)ethyl)acrylamide]	< 0.1	< 0.1	> 10
CC(C)(O)c1ccc(-c2ccc(OCCNC(=O)/C=C/c3ccc(N)nc3)c(Cl)c2)s1 [Compound 319, (E)-3-(6-aminopyridin-3-yl)-N-(2-(2-chloro-4-(5-(2-hydroxypropan-2-yl)thiophen-2-yl)phenoxy)ethyl)acrylamide]	0.1 to 5	0.1 to 5	> 10
CC(C)(O)c1ccc(-c2ccc(OCCNC(=O)/C=C/c3cccnc3)c(Cl)c2)s1 [Compound 320, (E)-N-(2-(2-chloro-4-(5-(2-hydroxypropan-2-yl)thiophen-2-yl)phenoxy)ethyl)-3-(pyridin-3-yl)acrylamide]	0.1 to 5	0.1 to 5	5 to 10
Nc1ccc(/C=C/C(=O)NCCOc2ccc(-c3ccc(C(=O)N4CCOCC4)nc3)cc2Cl)cn1 [Compound 321, (E)-3-(6-aminopyridin-3-yl)-N-(2-(2-chloro-4-(6-(morpholine-4-carbonyl)pyridin-3-yl)phenoxy)ethyl)acrylamide]	< 0.1	< 0.1	> 10
CC(=O)c1ccc(-c2ccc(NCCNC(=O)/C=C/c3cccnc3)c(Cl)c2)s1 [Compound 322, (E)-N-(2-(4-(5-acetylthiophen-2-yl)-2-chlorophenylamino)ethyl)-3-(pyridin-3-yl)acrylamide]	0.1 to 5	0.1 to 5	> 10
CC(=O)c1ccc(-c2ccc(OC(C)(C)CNC(=O)/C=C/c3cccnc3)c(Cl)c2)s1 [Compound 323, (E)-N-(2-(4-(5-acetylthiophen-2-yl)-2-chlorophenoxy)-2-methylpropyl)-3-(pyridin-3-yl)acrylamide]	0.1 to 5	5 to 10	> 10
CN(C)C(=O)c1ccc(-c2ccc(OCCNC(=O)/C=C/c3ccc(N)nc3)c(Cl)c2)cc1 [Compound 325, (E)-4′-(2-(3-(6-aminopyridin-3-yl)acrylamido)ethoxy)-3′-chloro-N,N-dimethylbiphenyl-4-carboxamide]	0.1 to 5	0.1 to 5	> 10
Nc1ccc(/C=C/C(=O)NCCOc2ccc(-c3ccc(C(=O)N4CCNCC4)cc3)cc2Cl)cn1 [Compound 326, (E)-3-(6-aminopyridin-3-yl)-N-(2-(3-chloro-4′-(piperazine-1-carbonyl)biphenyl-4-yloxy)ethyl)acrylamide]	< 0.1	< 0.1	0.1 to 5
CC(=O)c1ccc(-c2ccc(OCCNC(=O)/C=C\c3cccnc3)c(Cl)c2)s1 [Compound 327, (Z)—N-(2-(4-(5-acetylthiophen-2-yl)-2-chlorophenoxy)ethyl)-3-(pyridin-3-yl)acrylamide]	0.1 to 5	5 to 10	> 10
Nc1ccc(/C=C/C(=O)NCCOc2ccc(-c3cnc(C(=O)N4CCOCC4)nc3)cc2Cl)cn1 [Compound 328, (E)-3-(6-aminopyridin-3-yl)-N-(2-(2-chloro-4-(2-(morpholine-4-carbonyl)pyrimidin-5-yl)phenoxy)ethyl)acrylamide]	0.1 to 5	0.1 to 5	> 10
Nc1ccc(/C=C/C(=O)NCCOc2ccc(-c3ccc(C(=O)N4CCCCC4)cc3)cc2Cl)cn1 [Compound 329, (E)-3-(6-aminopyridin-3-yl)-N-(2-(3-chloro-4′-(piperidine-1-carbonyl)biphenyl-4-yloxy)ethyl)acrylamide]	< 0.1	< 0.1	> 10
CC(=O)c1ccc(-c2ccc(OCCNC(=O)/C=C/c3ccc(N)nc3)c(Cl)n2)s1 [Compound 330, (E)-N-(2-(6-(5-acetylthiophen-2-yl)-2-chloropyridin-3-yloxy)ethyl)-3-(6-aminopyridin-3-yl)acrylamide]	0.1 to 5	0.1 to 5	> 10
CC(=O)c1ccc(-c2cnc(OCCNC(=O)/C=C/c3ccc(N)nc3)c(Cl)c2)s1 [Compound 331, (E)-N-(2-(5-(5-acetylthiophen-2-yl)-3-chloropyridin-2-yloxy)ethyl)-3-(6-aminopyridin-3-yl)acrylamide]	> 10	> 10	> 10
Nc1ccc(/C=C/C(=O)NCCOc2cc(Cl)cc(-c3ccc(C(=O)N4CC(F)(F)C4)cc3)c2)cn1 [Compound 332, (E)-3-(6-aminopyridin-3-yl)-N-(2-(5-chloro-4′-(3,3-difluoroazetidine-1-carbonyl)biphenyl-3-yloxy)ethyl)acrylamide]	< 0.1	< 0.1	0.1 to 5
CC(C)(CNC(=O)/C=C/c1ccc(N)nc1)Oc1ccc(-c2ccc(C(=O)N3CC(F)(F)C3)cc2)cc1Cl [Compound 333, (E)-3-(6-aminopyridin-3-yl)-N-(2-(3-chloro-4′-(3,3-difluoroazetidine-1-carbonyl)biphenyl-4-yloxy)-2-methylpropyl)acrylamide]	0.1 to 5	0.1 to 5	> 10
CN(CCOc1ccc(-c2ccc(C(=O)N3CC(F)(F)C3)cc2)cc1Cl)C(=O)/C=C/c1ccc(N)nc1 [Compound 334, (E)-3-(6-aminopyridin-3-yl)-N-(2-(3-chloro-4′-(3,3-difluoroazetidine-1-carbonyl)biphenyl-4-yloxy)ethyl)-N-methylacrylamide]	< 0.1	0.1 to 5	5 to 10
CC1(C)COCCN1C(=O)c1ccc(-c2ccc(OCCNC(=O)/C=C/c3ccc(N)nc3)c(Cl)c2)cc1 [Compound 335, (E)-3-(6-aminopyridin-3-yl)-N-(2-(3-chloro-4′-(3,3-dimethylmorpholine-4-carbonyl)biphenyl-4-yloxy)ethyl)acrylamide]	< 0.1	< 0.1	0.1 to 5
Nc1ccc(/C=C/C(=O)NCCCOc2ccc(-c3ccc(C(=O)N4CC(F)(F)C4)cc3)cc2Cl)cn1 [Compound 336, (E)-3-(6-aminopyridin-3-yl)-N-(3-(3-chloro-4′-(3,3-difluoroazetidine-1-carbonyl)biphenyl-4-yloxy)propyl)acrylamide]	< 0.1	< 0.1	0.1 to 5
Nc1ccc(/C=C/C(=O)NCCS(=O)(=O)c2ccc(-c3ccc(C(=O)N4CC(F)(F)C4)cc3)cc2Cl)cn1 [Compound 337, (E)-3-(6-aminopyridin-3-yl)-N-(2-(3-chloro-4′-(3,3-difluoroazetidine-1-carbonyl)biphenyl-4-ylsulfonyl)ethyl)acrylamide]	> 10	> 10	> 10
Nc1ccc(/C=C/C(=O)NCCOc2ccc(-c3ccc(C(=O)N4CC(F)(F)C4)cc3)cc2C(F)(F)F)cn1 [Compound 338, (E)-3-(6-aminopyridin-3-yl)-N-(2-(4′-(3,3-difluoroazetidine-1-carbonyl)-3-(trifluoromethyl)biphenyl-4-yloxy)ethyl)acrylamide]	< 0.1	< 0.1	< 0.1
Nc1ccc(/C=C/C(=O)NCCOc2ccc(-c3ccc(C(=O)N4CCOCC4)cc3)cc2C(F)(F)F)cn1 [Compound 339, (E)-3-(6-aminopyridin-3-yl)-N-(2-(4′-(morpholine-4-carbonyl)-3-(trifluoromethyl)biphenyl-4-yloxy)ethyl)acrylamide]	< 0.1	< 0.1	0.1 to 5
